Reference: PubChem BioAssay AID2060882 (Molecular Pharmacology Branch, DTP, NCI, 2025)

System: 898857-211-R-J1-PDC complex spheroids, growth % test/control
Assay: Anticancer human tumor 898857-211-R-J1-PDC patient-derived melanoma cell line growth inhibition [RAS]
Conditions: for IC50: curve of first compound; for viability, T/C: stronger effect = lower value
Outline: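 Agents were tested in combination matrices in half-log decrements from a top concentration at or near clinical Cmax (10 microM if undetermined). Targets were multi-cell spheroids of tumour lines plus HUVEC and MSC stromal cells.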
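Further: spheroids exposed to compound for seven days before readout.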
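Wherever viability, T/C is given: 100% = DMSO vehicle control wells.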

Question: Which results are given for `CC1(C)CCC(Nc2ncc(C(F)(F)F)c(-c3c[nH]c4c(P(C)(C)=O)c(C#N)ccc34)n2)CN1` (centres undefined) + C#Cc1c(F)ccc2cc(O)cc(-c3ncc4c(N5CC6CCC(C5)N6)nc(OCC56CCCN5CC(F)C6)nc4c3F)c12?
Answer: IC50 (second compound 0.0316 µM): 4.05 nM; IC50 (second compound 0.1 µM): 5.69 nM; IC50 (second compound 0.316 µM): 5.3 nM; IC50 (second compound 1 µM): 5.82 nM; IC50 (second compound 3.16 µM): 5.41 nM; IC50 (second compound 10 µM): 2.06 nM; viability, T/C (second compound 0.0316 µM, first compound 0.000949 µM): 99.2%; viability, T/C (second compound 0.0316 µM, first compound 0.003 µM): 56.7%; viability, T/C (second compound 0.0316 µM, first compound 0.00949 µM): 30.9%; viability, T/C (second compound 0.0316 µM, first compound 0.03 µM): 22%; viability, T/C (second compound 0.0316 µM, first compound 0.0949 µM): 19.6%; viability, T/C (second compound 0.0316 µM, first compound 0.3 µM): 17.6%; viability, T/C (second compound 0.1 µM, first compound 0.000949 µM): 92.2%; viability, T/C (second compound 0.1 µM, first compound 0.003 µM): 66.7%; viability, T/C (second compound 0.1 µM, first compound 0.00949 µM): 35.4%; viability, T/C (second compound 0.1 µM, first compound 0.03 µM): 26.7%; viability, T/C (second compound 0.1 µM, first compound 0.0949 µM): 18.4%; viability, T/C (second compound 0.1 µM, first compound 0.3 µM): 17.5%; viability, T/C (second compound 0.316 µM, first compound 0.000949 µM): 91.3%; viability, T/C (second compound 0.316 µM, first compound 0.003 µM): 63.7%; viability, T/C (second compound 0.316 µM, first compound 0.00949 µM): 34.5%; viability, T/C (second compound 0.316 µM, first compound 0.03 µM): 28.1%; viability, T/C (second compound 0.316 µM, first compound 0.0949 µM): 20.4%; viability, T/C (second compound 0.316 µM, first compound 0.3 µM): 18.2%; viability, T/C (second compound 1 µM, first compound 0.000949 µM): 86.7%; viability, T/C (second compound 1 µM, first compound 0.003 µM): 66.1%; viability, T/C (second compound 1 µM, first compound 0.00949 µM): 37.7%; viability, T/C (second compound 1 µM, first compound 0.03 µM): 24.4%; viability, T/C (second compound 1 µM, first compound 0.0949 µM): 20.6%; viability, T/C (second compound 1 µM, first compound 0.3 µM): 17.1%; viability, T/C (second compound 3.16 µM, first compound 0.000949 µM): 87%; viability, T/C (second compound 3.16 µM, first compound 0.003 µM): 64.4%; viability, T/C (second compound 3.16 µM, first compound 0.00949 µM): 34.7%; viability, T/C (second compound 3.16 µM, first compound 0.03 µM): 28.9%; viability, T/C (second compound 3.16 µM, first compound 0.0949 µM): 19.7%; viability, T/C (second compound 3.16 µM, first compound 0.3 µM): 19.1%; viability, T/C (second compound 10 µM, first compound 0.000949 µM): 68.7%; viability, T/C (second compound 10 µM, first compound 0.003 µM): 40.4%; viability, T/C (second compound 10 µM, first compound 0.00949 µM): 25.2%; viability, T/C (second compound 10 µM, first compound 0.03 µM): 24.3%; viability, T/C (second compound 10 µM, first compound 0.0949 µM): 15.3%; viability, T/C (second compound 10 µM, first compound 0.3 µM): 13.2%

Question: How did the IC50 (second compound 0.000949 µM) turn out when `CC(=O)OC12COC1CC(O)C1(C)C(=O)C(O)C3=C(C)C(OC(=O)C(O)C(NC(=O)OC(C)(C)C)c4ccccc4)CC(O)(C(OC(=O)c4ccccc4)C21)C3(C)C` (centres undefined) + CCn1c(-c2cccnc2C(C)OC)c2c3cc(ccc31)N1CCOC(CC(NC(=O)C(C(C)C)N(C)C(=O)C3(F)CCN(C(=O)C#CC(C)(C)N(C)C)CC3)C(=O)N3CCCC(N3)C(=O)OCC(C)(C)C2)C1 was run?
Answer: < 31.6 nM

Question: And the IC50 (second compound 0.003 µM)?
Answer: < 31.6 nM

Question: What about the IC50 (second compound 0.00949 µM) of the same compound?
Answer: < 31.6 nM

Question: And the IC50 (second compound 0.03 µM)?
Answer: < 31.6 nM

Question: What about the IC50 (second compound 0.0949 µM) of the same compound?
Answer: < 31.6 nM

Question: What about the IC50 (second compound 0.3 µM) of the same compound?
Answer: < 31.6 nM

Question: And the viability, T/C (second compound 0.000949 µM, first compound 0.0316 µM)?
Answer: 10.8%

Question: What about the viability, T/C (second compound 0.000949 µM, first compound 0.1 µM) of the same compound?
Answer: 9.24%

Question: And the viability, T/C (second compound 0.000949 µM, first compound 0.316 µM)?
Answer: 8.35%

Question: What about the viability, T/C (second compound 0.000949 µM, first compound 1 µM) of the same compound?
Answer: 12.8%

Question: What about the viability, T/C (second compound 0.000949 µM, first compound 3.16 µM) of the same compound?
Answer: 18.6%

Question: What about the viability, T/C (second compound 0.000949 µM, first compound 10 µM) of the same compound?
Answer: 20.4%

Question: What about the viability, T/C (second compound 0.003 µM, first compound 0.0316 µM) of the same compound?
Answer: 10.1%

Question: What about the viability, T/C (second compound 0.003 µM, first compound 0.1 µM) of the same compound?
Answer: 11.5%

Question: And the viability, T/C (second compound 0.003 µM, first compound 0.316 µM)?
Answer: 11.4%

Question: And the viability, T/C (second compound 0.003 µM, first compound 1 µM)?
Answer: 12.4%

Question: What about the viability, T/C (second compound 0.003 µM, first compound 3.16 µM) of the same compound?
Answer: 14%

Question: And the viability, T/C (second compound 0.003 µM, first compound 10 µM)?
Answer: 20.9%

Question: What about the viability, T/C (second compound 0.00949 µM, first compound 0.0316 µM) of the same compound?
Answer: 7.95%

Question: What about the viability, T/C (second compound 0.00949 µM, first compound 0.1 µM) of the same compound?
Answer: 8.82%

Question: And the viability, T/C (second compound 0.00949 µM, first compound 0.316 µM)?
Answer: 13.5%

Question: And the viability, T/C (second compound 0.00949 µM, first compound 1 µM)?
Answer: 11.8%

Question: What about the viability, T/C (second compound 0.00949 µM, first compound 3.16 µM) of the same compound?
Answer: 12.9%

Question: And the viability, T/C (second compound 0.00949 µM, first compound 10 µM)?
Answer: 20.2%

Question: What about the viability, T/C (second compound 0.03 µM, first compound 0.0316 µM) of the same compound?
Answer: 8.31%

Question: And the viability, T/C (second compound 0.03 µM, first compound 0.1 µM)?
Answer: 10.6%

Question: And the viability, T/C (second compound 0.03 µM, first compound 0.316 µM)?
Answer: 9.59%

Question: And the viability, T/C (second compound 0.03 µM, first compound 1 µM)?
Answer: 13.5%

Question: And the viability, T/C (second compound 0.03 µM, first compound 3.16 µM)?
Answer: 16.6%

Question: What about the viability, T/C (second compound 0.03 µM, first compound 10 µM) of the same compound?
Answer: 15.3%

Question: What about the viability, T/C (second compound 0.0949 µM, first compound 0.0316 µM) of the same compound?
Answer: 8.5%

Question: What about the viability, T/C (second compound 0.0949 µM, first compound 0.1 µM) of the same compound?
Answer: 10.2%

Question: And the viability, T/C (second compound 0.0949 µM, first compound 0.316 µM)?
Answer: 10.7%

Question: What about the viability, T/C (second compound 0.0949 µM, first compound 1 µM) of the same compound?
Answer: 11.4%

Question: What about the viability, T/C (second compound 0.0949 µM, first compound 3.16 µM) of the same compound?
Answer: 15.7%

Question: And the viability, T/C (second compound 0.0949 µM, first compound 10 µM)?
Answer: 14.4%

Question: What about the viability, T/C (second compound 0.3 µM, first compound 0.0316 µM) of the same compound?
Answer: 8.04%

Question: And the viability, T/C (second compound 0.3 µM, first compound 0.1 µM)?
Answer: 7.55%

Question: And the viability, T/C (second compound 0.3 µM, first compound 0.316 µM)?
Answer: 8.89%

Question: And the viability, T/C (second compound 0.3 µM, first compound 1 µM)?
Answer: 9.35%

Question: And the viability, T/C (second compound 0.3 µM, first compound 3.16 µM)?
Answer: 11.3%

Question: And the viability, T/C (second compound 0.3 µM, first compound 10 µM)?
Answer: 7.88%
